Measurements from article PMC12206033, “Selective inhibition of TRPV3 channel by natural rosmarinic acid and its analogs for alleviation of skin lesions through downregulation of NF-κB pathway” (The Journal of Biological Chemistry, 2025).

Key:
TRPV3 T665A [1] = molecular target: T1, TRPV3 T665A (Homo sapiens, UniProt Q8NET8, T665A); experiment: single-channel inside-out patch recordings of TRPV3 T665A mutant; format: cell-based; conditions: ROSA 100 μM co-applied with 2-APB 50 μM; n = 4
T1 construct: expressed in transfected cells; host or cells: HEK293T
T1 sequence (Q8NET8 1-790 T665A): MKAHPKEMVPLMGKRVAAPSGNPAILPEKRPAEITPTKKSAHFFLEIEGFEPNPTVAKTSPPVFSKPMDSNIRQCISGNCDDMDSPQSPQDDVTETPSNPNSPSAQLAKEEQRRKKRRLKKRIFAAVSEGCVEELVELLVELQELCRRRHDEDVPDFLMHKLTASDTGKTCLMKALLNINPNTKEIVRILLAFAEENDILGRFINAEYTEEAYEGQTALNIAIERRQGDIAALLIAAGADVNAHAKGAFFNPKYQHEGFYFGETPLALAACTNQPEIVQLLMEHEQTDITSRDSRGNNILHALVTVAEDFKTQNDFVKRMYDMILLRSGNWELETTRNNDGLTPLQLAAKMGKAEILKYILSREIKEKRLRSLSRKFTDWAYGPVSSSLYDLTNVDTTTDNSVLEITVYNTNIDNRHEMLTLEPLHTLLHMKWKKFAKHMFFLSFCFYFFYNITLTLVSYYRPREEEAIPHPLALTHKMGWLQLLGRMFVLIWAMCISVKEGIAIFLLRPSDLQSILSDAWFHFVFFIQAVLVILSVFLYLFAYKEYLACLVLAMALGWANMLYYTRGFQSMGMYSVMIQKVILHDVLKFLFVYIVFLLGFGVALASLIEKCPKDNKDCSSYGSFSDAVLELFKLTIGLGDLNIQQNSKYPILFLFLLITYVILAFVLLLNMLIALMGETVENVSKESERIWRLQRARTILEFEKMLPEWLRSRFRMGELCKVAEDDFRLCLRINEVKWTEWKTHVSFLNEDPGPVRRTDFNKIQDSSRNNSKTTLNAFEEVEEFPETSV
Description: (§1) HEK293T cell line was obtained from the Cell Resource Center, Peking Union Medical College. HEK293T cells were maintained in Dulbecco’s modified Eagle’s medium (DMEM, Gibco) supplemented with 10% fetal bovine serum at 37 °C with 5% CO2. […] The next day, determine the plasmid transfection status by observing green fluorescence based on expression of enhanced GFP as an indicator. […] When conducting experiments on HEK293T cells transfected with G573S point mutant TRPV3 plasmid, we replaced culture medium with or without compounds after 4 h of transfection and then observed green fluorescence of HEK293T cell after 10 h. As for the relative fluorescence intensity, we convert the image to 8 bit grayscale using ImageJ (Https://imagej.net/software/fiji/downloads) and set an appropriate threshold value to reduce background noise and enhance the image contrast.
(§2) All patch-clamp recordings were conducted 16 to 24 h after transfection using an EPC10 amplifier powered by PatchMaster software (HEKA) (https://www.heka.com/downloads/downloads_main.html#down_patchmaster) at room temperature. […] Currents were recorded at a potential ramp from −100 mV to +100 mV for 1000 ms with 1000-ms intervals (for whole-cell recordings) or a persistent potential of −60 mV (inside-out patch recordings). […]

TRPV3 T665A [2] = molecular target: T1, TRPV3 T665A; experiment: whole-cell patch-clamp of hTRPV3 T665A mutant currents; format: cell-based; conditions: ROSA 100 μM; 2-APB; read-out: inhibition of macroscopic hTRPV3 T665A currents
Description: as §1, §2

[3] = test system: Car-induced ear swelling and dorsal skin inflammation in mice; experiment: mouse model of ear swelling and dorsal skin inflammation induced by skin sensitizer Car (3%); format: in vivo
Description: Adult C57BL/6J mice (aged 6–8 weeks, weighing 20 ± 2 g) were purchased from the Beijing Vital River Laboratory Animal Technology Co. Ltd. TRPV3-KO mice were purchased from Cyagen Biosciences Inc. All mice were housed in plastic cages with natural poplar wood bedding materials, accommodating three to five mice per cage. The housing environment was maintained at a controlled room temperature of (23 ± 2) °C and humidity of (50 ± 5) %, with 12-h light/dark cycle (lights on at 7:00 AM and off at 7:00 PM). Mice had free access to food and water. All animal test protocols were approved by the Institutional Animal Care and Use Committee of Qingdao University Health Science Center and were conducted in accordance with institutional and national guidelines for the use and care of animals in experiments. All mice were anesthetized with isoflurane (1%–1.5%) using an isoflurane gas anesthesia device and were euthanized under anesthesia.
Skin sensitizer Car was dissolved in saline solution containing 30% ethanol. The dorsal skin or ear of mice was swabbed with 3% Car for four consecutive days. To investigate the effects of ROSA, it was diluted to concentration of 0.1/1/10 mM with saline and topically applied on the ear and dorsal skin once a day for 4 days. The control group only received swabs with the solvent.

O=C(/C=C/c1ccc(O)c(O)c1)O[C@H](Cc1ccc(O)c(O)c1)C(=O)O [ROSA, rosmarinic acid]
single-channel open probability, T665A mutant (TRPV3 T665A [1]): 0.69 | inhibition at 100 µM (TRPV3 T665A [2]): 19.1% | ear thickness in Trpv3 KO mice ([3]; topical ROSA 10 mM, Trpv3 KO mice, Car): no further reduction of ear thickness | ear and dorsal skin inflammation ([3]; topical ROSA 0.1, 1.0 and 10 mM once a day for 4 days, 3% Car, compared to Car alone): significantly alleviated the ear and dorsal skin inflammation | ear swelling scores ([3]; topical ROSA 0.1, 1.0 and 10 mM, 3% Car, compared to Car alone): reduced the ear swelling scores in both dose- and time-dependent manner | ear thickness ([3]; topical ROSA, 3% Car, compared to Car alone): reduction in ear thickness was also evident, starting on the third day | dermatitis scores, dorsal skin ([3]; topical ROSA, 3% Car, fourth day): significant difference in dermatitis scores between the ROSA group and the Car group
